Results taken from patent publication US10174067B2, “Type of cytidine derivative and application thereof” (priority 2014, dated 2019).
Marks after values point to notes of the source that are not given here.

Key:
[1] = test system: HCT-116 colon cancer xenografts; assay: Tumor growth inhibition of HCT-116 colon cancer xenografts in tumor-bearing nude mice (tumor volume, TGI %, RTV, T/C %); type: in vivo, Balb/c Nude mice; conditions: for T/C % (relative tumor proliferation rate): dosage 400 mg/kg (G10-G16 study);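 on T/C % (relative tumor proliferation rate): control C is the vehicle-treated model control group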
How it was run: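 Tumors in HCT-116-inoculated nude mice were sized three times weekly by diameter, with volume V=3/4π(D/2)^3. Significance set at P<0.05.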

[2] = How it was run: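 Test compounds formulated in ethanol:Cremophor EL:saline (5:5:90), vehicle alone as control, in HCT-116 subcutaneous xenografts in female Balb/c nudes (6/group, start 60–150 mm^3). Weight measured three times weekly, tumour weight at end; unpaired t-test on Mean±SEM data.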
[3] = Day 0, G10-G16 groups, single IP 400 mg/kg
[4] = Day 0, G10-G16 groups, single IP 400 mg/kg, Mean±SEM
[5] = Day 1, G10-G16 groups, single IP 400 mg/kg, Mean±SEM
[6] = Day 2, G10-G16 groups, single IP 400 mg/kg, Mean±SEM
[7] = Day 4, G10-G16 groups, single IP 400 mg/kg, Mean±SEM
[8] = Day 7, G10-G16 groups, single IP 400 mg/kg, Mean±SEM
[9] = Day 9, G10-G16 groups, single IP 400 mg/kg, Mean±SEM
[10] = Day 11, G10-G16 groups, single IP 400 mg/kg, Mean±SEM
[11] = Day 14, G10-G16 groups, single IP 400 mg/kg, Mean±SEM
[12] = Day 16, G10-G16 groups, single IP 400 mg/kg, Mean±SEM
[13] = Day 18, G10-G16 groups, single IP 400 mg/kg, Mean±SEM
[14] = Day 21, G10-G16 groups, single IP 400 mg/kg, Mean±SEM
[15] = Day 23, G10-G16 groups, single IP 400 mg/kg, Mean±SEM
[16] = Day 25, G10-G16 groups, single IP 400 mg/kg, Mean±SEM
[17] = Day 28, G10-G16 groups, single IP 400 mg/kg, Mean±SEM
[18] = Day 30, G10-G16 groups, single IP 400 mg/kg, Mean±SEM

In the case of `O=C(COc1nc(Cl)c(Cl)cc1Cl)OC[C@H]1O[C@@H](n2cc(Br)c(NC(=O)OCc3ccccc3)nc2=O)C(F)(F)C1O` (stereo partly shown) [Compound G10], the “Day 0 (RTV)” value [1, 3] is reported as 1.00, the “Tumor volume, Day 0” value [1, 4] is reported as 83.23 ± 12.39 mm^3 and the “T/C % (relative tumor proliferation rate)” value ([1]; Day 0) is reported as 0.00%. The “Day 1 (TGI %)” value ([1]; Day 1, G10-G16 groups, single IP 400 mg/kg) was 50.51%, the “Day 1 (RTV)” value [1, 5] was 1.06 ± 0.12 and the “Tumor volume, Day 1” value [1, 5] was 89.33 ± 14.35** mm^3. For the same molecule, the “T/C % (relative tumor proliferation rate)” value ([1]; Day 1) was 63.00%, the “Day 2 (TGI %)” value ([1]; Day 2, G10-G16 groups, single IP 400 mg/kg) was 51.72% and the “Day 2 (RTV)” value [1, 6] was 1.27 ± 0.16. For the same molecule, the “Tumor volume, Day 2” value [1, 6] was 108.22 ± 18.22** mm^3, the “T/C % (relative tumor proliferation rate)” value ([1]; Day 2) was 61.29% and the “Day 4 (TGI %)” value ([1]; Day 4, G10-G16 groups, single IP 400 mg/kg) was 48.03%. The “Day 4 (RTV)” value [1, 7] was 1.83 ± 0.20, the “Tumor volume, Day 4” value [1, 7] was 154.33 ± 27.49** mm^3 and the “T/C % (relative tumor proliferation rate)” value ([1]; Day 4) was 66.28%. The “Day 7 (TGI %)” value ([1]; Day 7, G10-G16 groups, single IP 400 mg/kg) was 46.09%, the “Day 7 (RTV)” value [1, 8] was 2.82 ± 0.25 and the “Tumor volume, Day 7” value [1, 8] was 233.13 ± 37.06** mm^3. The “T/C % (relative tumor proliferation rate)” value ([1]; Day 7) was 69.09%, the “Day 9 (TGI %)” value ([1]; Day 9, G10-G16 groups, single IP 400 mg/kg) was 33.35% and the “Day 9 (RTV)” value [1, 9] was 4.84 ± 0.55. The “Tumor volume, Day 9” value [1, 9] was 393.47 ± 68.53 mm^3, the “T/C % (relative tumor proliferation rate)” value ([1]; Day 9) was 86.30% and the “Day 11 (TGI %)” value ([1]; Day 11, G10-G16 groups, single IP 400 mg/kg) was 38.55%. The “Day 11 (RTV)” value [1, 10] was 7.60 ± 0.85, the “Tumor volume, Day 11” value [1, 10] was 599.83 ± 84* mm^3 and the “T/C % (relative tumor proliferation rate)” value ([1]; Day 11) was 82.36%. The “Day 14 (TGI %)” value ([1]; Day 14, G10-G16 groups, single IP 400 mg/kg) was 30.82%, the “Day 14 (RTV)” value [1, 11] was 13.37 ± 2.23 and the “Tumor volume, Day 14” value [1, 11] was 996.32 ± 91.77* mm^3. The “T/C % (relative tumor proliferation rate)” value ([1]; Day 14) was 96.62%, the “Day 16 (TGI %)” value ([1]; Day 16, G10-G16 groups, single IP 400 mg/kg) was 24.07% and the “Day 16 (RTV)” value [1, 12] was 18.63 ± 3.27. The “Tumor volume, Day 16” value [1, 12] was 1375.20 ± 109.23* mm^3, the “T/C % (relative tumor proliferation rate)” value ([1]; Day 16) was 107.93% and the “Day 18 (TGI %)” value ([1]; Day 18, G10-G16 groups, single IP 400 mg/kg) was 18.11%. For the same molecule, the “Day 18 (RTV)” value [1, 13] was 22.45 ± 4.24, the “Tumor volume, Day 18” value [1, 13] was 1636.39 ± 114.98 mm^3 and the “T/C % (relative tumor proliferation rate)” value ([1]; Day 18) was 117.59%. The “Day 21 (TGI %)” value ([1]; Day 21, G10-G16 groups, single IP 400 mg/kg) was 14.51%, the “Day 21 (RTV)” value [1, 14] was 29.09 ± 6.00 and the “Tumor volume, Day 21” value [1, 14] was 2090.18 ± 124.45 mm^3. For the same molecule, the “T/C % (relative tumor proliferation rate)” value ([1]; Day 21) was 124.28%, the “Day 23 (TGI %)” value ([1]; Day 23, G10-G16 groups, single IP 400 mg/kg) was 10.21% and the “Day 23 (RTV)” value [1, 15] was 29.56 ± 5.99. For the same molecule, the “Tumor volume, Day 23” value [1, 15] was 2120.63 ± 111.71 mm^3, the “T/C % (relative tumor proliferation rate)” value ([1]; Day 23) was 149.49% and the “Day 25 (TGI %)” value ([1]; Day 25, G10-G16 groups, single IP 400 mg/kg) was 11.18%. The “Day 25 (RTV)” value [1, 16] was 31.95 ± 6.61, the “Tumor volume, Day 25” value [1, 16] was 2293.73 ± 132.31 mm^3 and the “T/C % (relative tumor proliferation rate)” value ([1]; Day 25) was 147.80%. The “Day 28 (TGI %)” value ([1]; Day 28, G10-G16 groups, single IP 400 mg/kg) was 10.61%, the “Day 28 (RTV)” value [1, 17] was 35.86 ± 7.35 and the “Tumor volume, Day 28” value [1, 17] was 2404.00 ± 127.93 mm^3. For the same molecule, the “T/C % (relative tumor proliferation rate)” value ([1]; Day 28) was 169.72%, the “Day 30 (TGI %)” value ([1]; Day 30, G10-G16 groups, single IP 400 mg/kg) was 10.17% and the “Day 30 (RTV)” value [1, 18] was 40.27 ± 10.35. For the same molecule, the “Tumor volume, Day 30” value [1, 18] was 2520.69 ± 108.41 mm^3, the “T/C % (relative tumor proliferation rate)” value ([1]; Day 30) was 162.31% and the “Weight change rate, Day 0” value [2, 3] was 0.00%. For the same molecule, the “Weight of mice, Day 0” value [2, 4] was 19.90 ± 0.17 g, the “Weight change rate, Day 1” value [2, 5] was −1.76 ± 0.49% and the “Weight of mice, Day 1” value [2, 5] was 19.55 ± 0.21 g. For the same molecule, the “Weight change rate, Day 2” value [2, 6] was −0.85 ± 0.43%, the “Weight of mice, Day 2” value [2, 6] was 19.73 ± 0.25 g and the “Weight change rate, Day 4” value [2, 7] was 1.94 ± 0.91 %. The “Weight of mice, Day 4” value [2, 7] was 20.28 ± 0.19 g, the “Weight change rate, Day 7” value [2, 8] was 0.61 ± 0.70 % and the “Weight of mice, Day 7” value [2, 8] was 20.02 ± 0.09 g. For the same molecule, the “Weight change rate, Day 9” value [2, 9] was 3.04 ± 1.24 %, the “Weight of mice, Day 9” value [2, 9] was 20.50 ± 0.24 g and the “Weight change rate, Day 11” value [2, 10] was 2.77 ± 1.51%. For the same molecule, the “Weight of mice, Day 11” value [2, 10] was 20.45 ± 0.32 g, the “Weight change rate, Day 14” value [2, 11] was −1.53 ± 2.52% and the “Weight of mice, Day 14” value [2, 11] was 19.60 ± 0.57 g. For the same molecule, the “Weight change rate, Day 16” value [2, 12] was −2.19 ± 3.22%, the “Weight of mice, Day 16” value [2, 12] was 19.47 ± 0.68 g and the “Weight change rate, Day 18” value [2, 13] was −1.80 ± 3.13%. For the same molecule, the “Weight of mice, Day 18” value [2, 13] was 19.55 ± 0.70 g, the “Weight change rate, Day 21” value [2, 14] was −2.23 ± 3.14% and the “Weight of mice, Day 21” value [2, 14] was 19.47 ± 0.72 g. The “Day 22 Mortality” value ([2]; Day 22, single IP dose (mg/kg)) was 0%, the “Weight change rate, Day 23” value [2, 15] was −2.41 ± 3.42% and the “Weight of mice, Day 23” value [2, 15] was 19.43 ± 0.78 g. For the same molecule, the “Weight change rate, Day 25” value [2, 16] was −1.80 ± 3.06%, the “Weight of mice, Day 25” value [2, 16] was 19.55 ± 0.69 g and the “Weight change rate, Day 28” value [2, 17] was −1.77 ± 2.66%. For the same molecule, the “Weight of mice, Day 28” value [2, 17] was 19.54 ± 0.67 g, the “Weight change rate, Day 30” value [2, 18] was −1.95 ± 3.04% and the “Weight of mice, Day 30” value [2, 18] was 19.55 ± 0.79 g. For the same molecule, the clinical symptoms ([2]; after single IP dose, compared with model control group) was “no significant differences in clinical symptoms”.
